Columns and labels:
Type in all cases: in vivo
Sesbania exaltata = test: Example C: selectivity test in major crops, post-emergence application; conditions: 576 h
From the text: (§1) Dans des pots de 7 x 7 x 8 cm remplis de terre agricole légère, on sème un nombre de graines déterminé en fonction de l'espèce végétale et de la grosseur de la graine.
(§2) On recouvre ensuite les graines d'une couche de terre d'environ 3 mm d'épaisseur et on laisse germer la graine jusqu'à ce qu'elle donne naissance à une plantule au stade convenable. Le stade de traitement pour les graminées est le stade "deuxième feuille en formation". Le stade de traitement pour les dicotylédones, est le stade "cotylédons étalés, première feuille vraie en développement".
(§3) Les pots sont alors traités par pulvérisation de bouillie en quantité correspondant à une dose volumique d'application de 500 l/ha et contenant la matière active à la concentration désirée.
(§4) La bouillie a été préparée de la même manière qu'à l'exemple A.
(§5) Les pots traités sont ensuite placés dans des bacs destinés à recevoir l'eau d'arrosage, en subirrigation, et maintenus pendant 24 jours à température ambiante sous 70 % d'humidité relative.
(§6) Au bout de 24 jours, on mesure un pourcentage (D) de destruction du nombre de pieds dans le pot traité par rapport au nombre de plantes dans les pots non traités (témoin). On mesure, sur les plantes traitées restantes, le pourcentage de réduction de taille (RT) par rapport aux plantes témoin.
(§7) Le pourcentage de volume foliaire non détruit par le produit est donc donné par la formule : [formula]
(§8) Cette valeur A est transformée en notation de 0 à 5 selon l'échelle suivante :
(§9) Ainsi, un produit est jugé comme sélectif vis à vis de la culture lorsque la valeur A notée est de 0 ou 1.
(§10) Les résultats obtenus sont présentés dans l'exemple C pour des doses d'application comprises entre 0,5 et 4 kg de matière active par hectare selon les produits.

Zea mays = test: as above; conditions: crop (Maïs), 24 days, score 0-5, 0 or 1 = selective
From the text: as §1, §2, §3, §4, §5, §6, §7, §8, §9, §10

Sinapis alba [1] = test: as above; conditions: 576 h
From the text: as §1, §2, §3, §4, §5, §6, §7, §8, §9, §10

Solanum nigrum [2] = test: as above; conditions: 576 h
From the text: as §1, §2, §3, §4, §5, §6, §7, §8, §9, §10

Ipomea pupurea = test: as above; conditions: 576 h
From the text: as §1, §2, §3, §4, §5, §6, §7, §8, §9, §10

Triticum aestivum = test: as above; conditions: crop (Blé), 24 days, score 0-5, 0 or 1 = selective
From the text: as §1, §2, §3, §4, §5, §6, §7, §8, §9, §10

Xanthium pennsylvanicum = test: as above; conditions: 576 h
From the text: as §1, §2, §3, §4, §5, §6, §7, §8, §9, §10

Oryza sativa = test: as above; conditions: crop (Riz), 24 days, score 0-5, 0 or 1 = selective
From the text: as §1, §2, §3, §4, §5, §6, §7, §8, §9, §10

Digitaria sanguinalis = test: Example B: post-emergence herbicidal application, pot test; conditions: 4000 g/ha, 576 h
From the text: as §1
as §2, with “formation ".” for “formation".”
as §3
(§11) La bouille a été préparée de la même manière qu'à l'exemple A.
as §5, §6
(§12) Le pourcentage du volume foliaire non détruit par le produit est donc donné par la formule : [formula]
as §8
(§13) Les résultats obtenus sont présentés après le tableau A pour des doses d'application de 4000 g/ha.

Sinapis alba [3] = test: as above; conditions: 4000 g/ha, 576 h
From the text: as §1
as §2, with “formation ".” for “formation".”
as §3, §11, §5, §6, §12, §8, §13

Solanum nigrum [4] = test: as above; conditions: 4000 g/ha, 576 h
From the text: as §1
as §2, with “formation ".” for “formation".”
as §3, §11, §5, §6, §12, §8, §13

Lolium multiflorum = test: as above; conditions: 4000 g/ha, 576 h
From the text: as §1
as §2, with “formation ".” for “formation".”
as §3, §11, §5, §6, §12, §8, §13

Echinochloa crusgalli = test: as above; conditions: 4000 g/ha, 576 h
From the text: as §1
as §2, with “formation ".” for “formation".”
as §3, §11, §5, §6, §12, §8, §13

Ipomea purpurea = test: as above; conditions: 4000 g/ha, 576 h
From the text: as §1
as §2, with “formation ".” for “formation".”
as §3, §11, §5, §6, §12, §8, §13
Wherever ACTIVITE HERBICIDE DE POST LEVEE O R Y is given: ranges in brackets are in %.
Wherever ACTIVITE HERBICIDE DE POST LEVEE T R Z is given: ranges in brackets are in %.
Wherever ACTIVITE HERBICIDE DE POST LEVEE Z E A is given: ranges in brackets are in %.

## CCOC(=O)c1cccnc1-c1nc(-c2ccccc2)nn1S(=O)(=O)N(C)C [compound 19]
Sesbania exaltata; 4000 g/ha
  ACTIVITE HERBICIDE DE POST LEVEE S E S: 5 (O à 10)
Zea mays; dose 4 kg/ha
  ACTIVITE HERBICIDE DE POST LEVEE Z E A: 0 (90 à 100)
Sinapis alba [1]; 4000 g/ha
  ACTIVITE HERBICIDE DE POST LEVEE S I N: 5 (O à 10)
Solanum nigrum [2]; 4000 g/ha
  ACTIVITE HERBICIDE DE POST LEVEE S O L: 5 (O à 10)
Ipomea pupurea; 4000 g/ha
  ACTIVITE HERBICIDE DE POST LEVEE I P O: 4 (10 à 30)
Triticum aestivum; dose 4 kg/ha
  ACTIVITE HERBICIDE DE POST LEVEE T R Z: 0 (90 à 100)
Xanthium pennsylvanicum; 4000 g/ha
  ACTIVITE HERBICIDE DE POST LEVEE X A N: 2 (50 à 70)
Oryza sativa; dose 4 kg/ha
  ACTIVITE HERBICIDE DE POST LEVEE O R Y: 0 (90 à 100)

## CN(C)S(=O)(=O)n1nc(-c2cccc(Cl)c2)nc1-c1ncccc1C(=O)O [compound 9]
Digitaria sanguinalis
  ACTIVITE DE POST-LEVEE DIG: 2 (50 à 70)
Sinapis alba [3]
  ACTIVITE DE POST-LEVEE SIN: 4 (10 à 30)
Solanum nigrum [4]
  ACTIVITE DE POST-LEVEE SOL: 3 (30 à 50)
Lolium multiflorum
  ACTIVITE DE POST-LEVEE LOL: 0 (90 à 100)
Echinochloa crusgalli
  ACTIVITE DE POST-LEVEE ECH: 2 (50 à 70)
Ipomea purpurea
  ACTIVITE DE POST-LEVEE IPO: 3 (30 à 50)
Sesbania exaltata; 500 g/ha
  ACTIVITE HERBICIDE DE POST LEVEE S E S: 5 (O à 10)
Zea mays; dose 0,5 kg/ha
  ACTIVITE HERBICIDE DE POST LEVEE Z E A: 2 (50 à 70)
Sinapis alba [1]; 500 g/ha
  ACTIVITE HERBICIDE DE POST LEVEE S I N: 3 (30 à 50)
Solanum nigrum [2]; 500 g/ha
  ACTIVITE HERBICIDE DE POST LEVEE S O L: 4 (10 à 30)
Ipomea pupurea; 500 g/ha
  ACTIVITE HERBICIDE DE POST LEVEE I P O: 3 (30 à 50)
Triticum aestivum; dose 0,5 kg/ha
  ACTIVITE HERBICIDE DE POST LEVEE T R Z: 0 (90 à 100)
Xanthium pennsylvanicum; 500 g/ha
  ACTIVITE HERBICIDE DE POST LEVEE X A N: 3 (30 à 50)
Oryza sativa; dose 0,5 kg/ha
  ACTIVITE HERBICIDE DE POST LEVEE O R Y: 1 (70 à 90)
